Structures are written as SMILES.

For the assay, the species on record is Rattus norvegicus. Briefly: Antiplatelet activity in Sprague-Dawley rat plasma assessed as shear induced platelet aggregation at 10 uM. The format is functional.

For `CC(=O)Oc1ccccc1C(=O)O` [ASPIRIN], the Activity came out at 44.7%.
Consider `C=C(COC(=O)/C=C/c1ccc(O)c(O)c1)C(O)CO[C@@H]1O[C@H](CO)[C@@H](O)[C@H](O)[C@H]1O` (stereo partly drawn) [PUBESCENOSIDE A], for which the Activity is 36.55%.
Take `C=C(CO)C(CO[C@@H]1O[C@H](CO)[C@@H](O)[C@H](O)[C@H]1O)OC(=O)/C=C/c1ccc(O)c(O)c1` (stereo partly drawn) [PUBESCENOSIDE B]: the Activity came to 27.3%.

Source of the values: ChEMBL document CHEMBL1158706, “Hemiterpene glucosides with anti-platelet aggregation activities from Ilex pubescens” (2005).
